Patent publication US12497403B2, “Factor XIa inhibitors” (Merck Sharp & Dohme LLC, priority 2021, dated 2025)

What was measured:
[1] = molecular target: human Factor XIa (Homo sapiens, UniProt P03951); assay: Factor XIa assay; assay type: biochemical; details: human Factor XIa 0.04 nM, GPR-AFC substrate, 25° C., pH 7.4; read-out: FXIa IC50
Protocol: (§1) The effectiveness of a compound of the present invention as an inhibitor of Coagulation Factor XIa can be determined using a relevant purified serine protease, and an appropriate synthetic substrate. The rate of hydrolysis of the chromogenic or fluorogenic substrate by the relevant serine protease was measured both in the absence and presence of compounds of the present invention. Assays were conducted at room temperature or at 37° C. […] A decrease in the rate of fluorescence change in the presence of inhibitor is indicative of enzyme inhibition. Such methods are known to one skilled in the art. The results of this assay are expressed as the half-maximal inhibitory concentrations (IC50), or the inhibitory constant, Ki.
Compounds were pre-incubated for 30 minutes at 25° C. with human (0.04 nM) Factor XIa in 50 mM HEPES buffer with 150 mM sodium chloride, 5 mM calcium chloride, 0.1% PEG 8000, pH 7.4. Factor XIa enzymatic activity was determined by addition of the substrate glycine-proline-arginine-7-amido-4-trifluoromethylcoumarin (GPR-AFC) and measurement of the fluorescence at 400/505 nm after a 60 minute incubation at 25° C. The % inhibition for each data point was calculated from the data and analyzed using the log (inhibitor) vs. response four parameters equation to determine the half-maximal inhibitory concentrations (IC50). The IC50 were converted to equilibrium inhibitory constants (Ki) using the Cheng-Prusoff equation.

[2] = molecular target: T1, Human Norepinephrine Transporter (NET) (Homo sapiens, UniProt P23975); assay: Norepinephrine Transporter functional antagonist uptake assay; assay type: cell-based; details: [3H]Norepinephrine uptake, human recombinant NET in MDCK cells
T1 construct: host or cells: MDCK cells
T1 sequence (P23975 whole entry): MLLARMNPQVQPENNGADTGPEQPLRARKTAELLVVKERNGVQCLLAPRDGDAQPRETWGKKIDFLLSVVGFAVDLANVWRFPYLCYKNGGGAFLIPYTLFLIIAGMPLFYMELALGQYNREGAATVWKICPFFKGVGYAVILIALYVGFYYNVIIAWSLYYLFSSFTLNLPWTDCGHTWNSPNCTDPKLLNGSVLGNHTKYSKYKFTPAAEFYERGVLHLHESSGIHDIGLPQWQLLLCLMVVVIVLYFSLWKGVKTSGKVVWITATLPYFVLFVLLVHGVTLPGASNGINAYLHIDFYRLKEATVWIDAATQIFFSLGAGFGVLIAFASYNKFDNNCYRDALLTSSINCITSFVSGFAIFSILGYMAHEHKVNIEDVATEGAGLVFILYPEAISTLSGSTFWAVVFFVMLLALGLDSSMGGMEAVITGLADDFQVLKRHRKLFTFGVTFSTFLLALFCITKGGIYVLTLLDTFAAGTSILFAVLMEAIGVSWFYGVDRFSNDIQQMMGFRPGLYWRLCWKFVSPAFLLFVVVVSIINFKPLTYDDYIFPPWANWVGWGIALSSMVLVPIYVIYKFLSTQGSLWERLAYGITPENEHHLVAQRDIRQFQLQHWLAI
Protocol: Human Norepinephrine Transporter (NET) Functional Antagonist Uptake Assay was carried out at Panlabs Cerep (assay#302100). Human recombinant norepinephrine transporter expressed in MDCK cells were plated overnight. Test compound and/or vehicle was pre-incubated with cells (2×10E5/ml) in modified Tris-HEPES buffer pH 7.1 for 20 minutes at 25° C. and 25 nM [3H]Norepinephrine was then added for an additional 15 minute incubation period. A lysate was obtained from solubilized cells and counted to determine [3H]Norepinephrine uptake. Reduction of [3H]Norepinephrine uptake by 50 percent or more (≥50%) relative to 10 μM desipramine indicates significant inhibitory activity. Compounds are screened at 10, 3, 1, 0.3, 0.1, 0.03, 0.01 and 0.003 μM. These same concentrations are concurrently applied to a separate group of untreated cells and evaluated for possible compound-induced cytotoxicity only if significant inhibition of uptake is observed. IC50 values were determined by a non-linear, least squares regression analysis using MathIQTM (IDBusiness Solutions Ltd., UK).

[3] = molecular target: T2, Human plasma kallikrein (Homo sapiens, UniProt P03952); assay: Kallikrein assay (plasma kallikrein); assay type: biochemical; details: purified Human plasma kallikrein 0.5 nM, Acetyl-K-P-R-AFC substrate, pH 7.4; read-out: pKal IC50
T2 construct: yields a heavy chain (371 amino acids) and a light chain (248 amino acids); purchased Enzyme Research Laboratories
T2 sequence (P03952 391-638 limits assumed): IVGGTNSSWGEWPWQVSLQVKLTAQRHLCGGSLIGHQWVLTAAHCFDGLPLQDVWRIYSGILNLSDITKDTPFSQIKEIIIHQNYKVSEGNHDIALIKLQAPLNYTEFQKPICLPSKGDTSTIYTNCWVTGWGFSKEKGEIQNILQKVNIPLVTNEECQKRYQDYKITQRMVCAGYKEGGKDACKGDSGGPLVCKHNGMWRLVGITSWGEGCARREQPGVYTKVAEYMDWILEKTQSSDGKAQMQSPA
T2 sequence (P03952 20-390 partner limits assumed): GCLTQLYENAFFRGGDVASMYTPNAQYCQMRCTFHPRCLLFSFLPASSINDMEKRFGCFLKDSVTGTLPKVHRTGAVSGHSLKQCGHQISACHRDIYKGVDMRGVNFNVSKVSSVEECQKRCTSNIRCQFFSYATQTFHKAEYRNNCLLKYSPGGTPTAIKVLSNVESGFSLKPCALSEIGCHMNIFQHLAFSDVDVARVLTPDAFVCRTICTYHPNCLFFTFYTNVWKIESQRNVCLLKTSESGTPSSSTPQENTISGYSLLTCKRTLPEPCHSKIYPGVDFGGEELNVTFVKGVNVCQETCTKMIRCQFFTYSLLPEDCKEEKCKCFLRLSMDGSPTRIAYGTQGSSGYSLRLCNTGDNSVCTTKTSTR
Protocol: as §1, with “Kallikrein” for “Coagulation Factor XIa”, “constant.” for “constant,”
Kallikrein determinations were made in 50 mM HEPES buffer at pH 7.4 containing 150 mM NaCl, 5 mM CaCl2, and 0.1% PEG 8000 (polyethylene glycol; Fisher Scientific). Determinations were made using purified Human plasma kallikrein at a final concentration of 0.5 nM (Enzyme Research Laboratories) and the synthetic substrate. Acetyl-K-P-R-AFC (Sigma # C6608) at a concentration of […].
Activity assays were performed by diluting a stock solution of substrate at least tenfold to a final concentration≤ 0.2 Km into a solution containing enzyme or enzyme equilibrated with inhibitor. Times required to achieve equilibration between enzyme and inhibitor were determined in control experiments. The reactions were performed under linear progress curve conditions and fluorescence increase measured at 405 Ex/510 Em nm. Values were converted to percent inhibition of the control reaction (after subtracting 100% Inhibition value). IC50 was determined by inflection point from a four parameter logistic curve fit. Ki was calculated using the Cheng Prusoff equation. Ki=IC50/(1+([S]/Km)).

[4] = molecular target: T3, human tissue kallikrein (Homo sapiens, UniProt P06870); assay: Inhibition of tissue kallikrein enzymatic activity; assay type: biochemical; details: human tissue kallikrein 5 nM, N-acetyl-KPR-AFC substrate, 25° C., pH 7.4; read-out: tKal IC50
T3 construct: purchased Ray Biotech or Evotec 228-10996
T3 sequence (P06870 25-262): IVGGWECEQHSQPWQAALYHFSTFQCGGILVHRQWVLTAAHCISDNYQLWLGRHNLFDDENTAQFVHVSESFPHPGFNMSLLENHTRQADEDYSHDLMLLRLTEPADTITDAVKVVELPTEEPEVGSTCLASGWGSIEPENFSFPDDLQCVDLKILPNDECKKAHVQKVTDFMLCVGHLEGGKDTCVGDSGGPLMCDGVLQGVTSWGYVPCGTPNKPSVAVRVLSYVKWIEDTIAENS
Protocol: Compounds were assayed with human tissue kallikrein (Ray Biotech, Cat # 228-10996 or Evotec, final concentration 5 nM) in 50 mM HEPES, 150 mM NaCl, 5 mM CaCl2, 0.1% PEG-8000, pH 7.4 at 25° C. in a Corning 3575 non-binding surface microplate. Compounds were tested in 10-point dose titrations starting at 166.67 uM with a 3-fold dilution series. Tissue kallikrein enzymatic activity was determined by measuring the rate of cleavage of N-acetyl-KPR-AFC substrate (Sigma, Cat # C6608, final concentration 100 uM) by continuously monitoring the fluorescence at 400/505 nm using a Tecan Safire plate-reader. The initial reaction rates (0) to 20 minutes) were used to determine percent inhibition. The % Inhibition for each data point was recalculated from the RFU/min data and analyzed using the log(inhibitor) vs. response four parameters equation with the GraphPad Prism software.

human Factor XIa, sequence (P03951 388-625 limits assumed): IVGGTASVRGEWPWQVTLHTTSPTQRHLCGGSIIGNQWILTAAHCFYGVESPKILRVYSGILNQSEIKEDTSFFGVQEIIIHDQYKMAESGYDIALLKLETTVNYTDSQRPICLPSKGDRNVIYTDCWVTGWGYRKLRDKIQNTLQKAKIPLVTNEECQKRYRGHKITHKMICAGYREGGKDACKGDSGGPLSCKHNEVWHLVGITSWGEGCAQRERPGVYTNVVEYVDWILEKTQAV
human Factor XIa, sequence (P03951 19-387 partner limits assumed): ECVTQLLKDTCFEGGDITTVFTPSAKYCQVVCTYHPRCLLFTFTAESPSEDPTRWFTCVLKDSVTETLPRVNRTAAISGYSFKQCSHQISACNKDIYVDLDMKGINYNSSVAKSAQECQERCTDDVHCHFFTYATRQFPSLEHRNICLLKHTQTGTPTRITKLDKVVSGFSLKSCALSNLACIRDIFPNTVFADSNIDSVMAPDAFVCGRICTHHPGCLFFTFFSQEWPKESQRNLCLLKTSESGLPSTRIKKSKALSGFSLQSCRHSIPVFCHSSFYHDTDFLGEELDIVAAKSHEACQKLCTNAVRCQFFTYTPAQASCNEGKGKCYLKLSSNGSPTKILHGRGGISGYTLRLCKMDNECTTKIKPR

IC50 [1] [nM]	IC50 [2] [nM]	IC50 [3] [nM]	IC50 [4] [nM]	Compound
0.81	> 10000	122	> 167000	COC(=O)Nc1ccc2c(c1)NC(=O)C(C)(C)CCC[C@H](c1ccc(-c3cc(F)ccc3-n3cc(C(F)(F)F)cn3)c[n+]1[O-])c1nc-2c(C(=O)OC)[nH]1 [Example 6, (R,Z)-5-(5-fluoro-2-(4-(trifluoromethyl)-1H-pyrazol-1-yl)phenyl)-2-(1^5-(methoxycarbonyl)-2^4-((methoxycarbonyl)amino)-5,5-dimethyl-4-oxo-1^1H-3-aza-1(4,2)-imidazola-2(1,2)-benzenacyclononaphane-9-yl)pyridine 1-oxide]
1.3	> 10000	104	> 167000	CCOC(=O)c1[nH]c2nc1-c1ccc(NC(=O)OC)cc1NC(=O)C(C)(C)CCC[C@@H]2c1ccc(-c2cc(Cl)cnc2OC(F)F)c[n+]1[O-] [Example 4, (R,Z)-5′-chloro-2′-(difluoromethoxy)-6-(1^5-(ethoxycarbonyl)-2^4-((methoxycarbonyl)amino)-5,5-dimethyl-4-oxo-1^1H-3-aza-1(4,2)-imidazola-2(1,2)-benzenacyclononaphane-9-yl)-[3,3′-bipyridine] 1-oxide]
0.19	> 10000	0.49	15000	CCOC(=O)c1[nH]c2nc1-c1ccc(NC(=O)OC)cc1NC(=O)C(C)(C)CCC[C@@H]2c1ccc(-c2cccc(Cl)c2F)c[n+]1[O-] [Example 5, (R,Z)-5-(3-chloro-2-fluorophenyl)-2-(1^5-(ethoxycarbonyl)-2^4-((methoxycarbonyl)amino)-5,5-dimethyl-4-oxo-1^1H-3-aza-1(4,2)-imidazola-2(1,2)-benzenacyclononaphane-9-yl)pyridine 1-oxide]

Continued, molecule first:

Compound	IC50 [1] [nM]	IC50 [2] [nM]	IC50 [3] [nM]	IC50 [4] [nM]
CCOC(=O)c1[nH]c2nc1-c1ccc(NC(=O)OC)cc1NC(=O)C(C)(C)CCC[C@@H]2c1ccc(-c2cc(Cl)ccc2-n2cc(C(F)(F)F)cn2)c[n+]1[O-] [Example 2, (R,Z)-5-(5-chloro-2-(4-(trifluoromethyl)-1H-pyrazol-1-yl)phenyl)-2-(1^5-(ethoxycarbonyl)-2^4-((methoxycarbonyl)amino)-5,5-dimethyl-4-oxo-1^1H-3-aza-1(4,2)-imidazola-2(1,2)-benzenacyclononaphane-9-yl)pyridine 1-oxide]	0.97	> 10000	11	> 167000
CCOC(=O)c1[nH]c2nc1-c1ccc(NC(=O)OC)cc1NC(=O)C(C)(C)CCC[C@@H]2c1ccc(-c2cc(F)ccc2OC(F)F)c[n+]1[O-] [Example 3, (R,Z)-5-(2-(difluoromethoxy)-5-fluorophenyl)-2-(1^5-(ethoxycarbonyl)-2^4-((methoxycarbonyl)amino)-5,5-dimethyl-4-oxo-1^1H-3-aza-1(4,2)-imidazola-2(1,2)-benzenacyclononaphane-9-yl)pyridine 1-oxide]	0.26	> 10000	1.4	886
CCOC(=O)c1[nH]c2nc1-c1ccc(NC(=O)OC)cc1NC(=O)C(C)(C)CCC[C@@H]2c1ccc(-c2cc(F)ccc2-n2cc(C(F)(F)F)cn2)c[n+]1[O-] [Example 1, (R,Z)-2-(1^5-(ethoxycarbonyl)-2^4-((methoxycarbonyl)amino)-5,5-dimethyl-4-oxo-1^1H-3-aza-1(4,2)-imidazola-2(1,2)-benzenacyclononaphane-9-yl)-5-(5-fluoro-2-(4-(trifluoromethyl)-1H-pyrazol-1-yl)phenyl)pyridine 1-oxide]	0.88	> 10000	119	> 167000
